The structures appear in SMILES notation.

What all share (format): in vivo
Assay [1] relates to Dermatophagoides pteronyssinus. In words: Mini-mattress trap: attraction capabilities of attracting solutions sprayed on felt. Here is the method:
(§1) Rearing: The species studied were Dermatophagoides pteronyssinus and Dermatophagoides farinae, house dust mite common in mattresses in Eurasia. Mites are reared in Petri dishes and fed with human skin flakes (skin and whiskers obtained by cleaning electric […]). All mites were reared together under defined conditions (20° C. and 75% relative humidity). The experiments took place in a room kept at 20° C. and 40% relative humidity. Aim of the experiments: The aim was to test the trap in condition similar to the conditions that will be met by the user of the trap. Materials and methods: The mattresses were built at a smaller scale (15× reduction) than usual mattresses. These mini-mattresses are made in polyurethane and covered by a cover in cotton. They were infested with mites since at least 3 months. The fabric was a felt of 20 mg/cm^2 and is a rectangle of 10 cm×20 cm. It was placed on the mini-mattress. Then the attracting solution was sprayed on the fabric with a spray bottle. The fabric was left in place on the mattress during one hour. During this time, the mites moved in the felt. It is very difficult to count directly the mites hidden in the mattress and in the fabric. Therefore, we used a Berlèse funnel which is a device that is usually used to separate insects from litter. Here, it was used to separate the mites from their mattress or from the fabric. The Berlèse funnel uses a light bulb to heat and dry the mattress, thus driving the mites downwards through a screen and into a collecting jar containing some food and some water. […] They are attracted by a source of moisture and the smell of food. The mattress or blanket were therefore placed in the funnel (FIG. 2). The mites went downwards in the direction of the jar, then in the jar. The harvest of the jar containing the mites took place after one day. Mites had then 24 hours to migrate to the jar collector. As a substantial proportion of the population is immobile (moulting mites), trapping is less efficient than it would be otherwise and estimate of population size that is trapped are likely to be biased. To avoid this bias and make a proper assessment of the populations in infested mattresses, mattresses were carefully brushed with a soft brush at the end of the manipulation meaning that immobile mites and eggs also fall into the funnel. Fabric was carefully brushed too. The Berlèze funnel was rinsed with ethanol. Thus, mites still on the inner wall of the funnel were driven by ethanol in the jar collector. At the end of the experiment, the jar contained: the food used as attracting to mites, a small amount of water also used for attracting, mites, and ethanol. The jar was emptied into a Petri dish and we counted mites under binocular. Counting of mites was made under binocular microscope (magnification 10×). The set-up is illuminated with a cold lamp (KL 1500 LCD, Schott ●). The felt was sprayed with different attracting compositions: a solution of lavandulol, a solution of Tween 60, a combination of lavandulol and Tween 60, a solution of citral, and the attracting solution commercialized under the brand name Acar'up were compared at various dilutions.

For a further assay, the system named is Dermatophagoides farinae. Described as above. The procedure: as §1
Another assay has as its system mites. Kind of assay: Short (5 minutes) exposure without drying time on consecutive days (FIG. 9). The following applies: lavandulol diluted at 10^−6, 5 minutes exposure, no drying time; first day of treatment. The procedure:
FIG. 9 is a graph representing the attracting efficiency of a 5 minutes time exposure of a composition comprising lavandulol diluted at 10^−6. The graph represents the percentage of mites trapped by a fabric sprayed with compositions, as a function of the days of exposure to the attracting composition. Similar experiments were performed to determine attractiveness of mites when an attracting solution comprising one or more attractive agents is exposed during a short time without drying time.

Where [2] appears, read: Dilution 10^−6 (* mixture of a lavandulol solution at 10^−6 and a Tween 60 solution at 10^−6).

Take `C=C(C)C(CO)CC=C(C)C` (centres unmarked) [Lavandulol, 5-Methyl-2-prop-1-en-2-ylhex-4-en-1-ol]: the “attraction capabilities, percentage of mites” value in assay [1] (Dilution 10^−1) is 34%; in assay [1] (Dilution 10^−3), 56%; in assay [1] (Dilution 10^−5) it was 91%; in assay [1] (setting [2]), 64%; in assay [1] (Dilution 10^−8), 46%; in assay [1] (Dilution 10^−9), 55%. The “attraction capabilities, percentage of mites” value in assay [1] (Dilution Undiluted) stood at 8%; with Dermatophagoides farinae (Dilution 10^−3) it was 57%; in the assay on Dermatophagoides farinae (Dilution 10^−5) it was 90%; in the assay on Dermatophagoides farinae (setting [2]) it was 71%; with Dermatophagoides farinae (Dilution 10^−8) it was 37%; in the assay on Dermatophagoides farinae (Dilution 10^−9), 28%. Besides, the “attraction capabilities, percentage of mites” value with Dermatophagoides farinae (Dilution Undiluted) was determined as 6%. Besides, the “percentage of mites attracted in the sheet” value with mites is “very high”.

These data come from patent US20220386582A1, “METHOD AND DEVICE TO TRAP ACARIDS” (DOMOBIOS, priority 2015, published 2022).
